Test system: BaF3
Test: Cytotoxicity against mouse BaF3 cells harboring EPOR JAK2 V617F mutant measured after 24 hrs by XTT assay
Assay type: functional, cell-based
Conditions: BaF3, 24 h

SMILES: Cc1cnc(Nc2ccc(N3CCN(C)CC3)cc2)nc1Nc1cccc(S(=O)(=O)NC(C)(C)C)c1
- IC50: 170 nM
